In general, pIC50 refers to −log10 of the IC50, conventionally taken in molar units.

The values below come from patent US20260258064A1 (SIRONAX LTD., priority 2023, published 2026).

Each structure is given as a SMILES string. pIC50: −log10 of the molar value. Some results are limits rather than exact numbers.

The assay deals with T1, SARM1 (50-724) (Homo sapiens, UniProt Q6SZW1).
T1 construct: Purified SARM1 (50-724) with a final concentration of 2 nM was pre-incubated with a test compound
T1 sequence (Q6SZW1 50-724): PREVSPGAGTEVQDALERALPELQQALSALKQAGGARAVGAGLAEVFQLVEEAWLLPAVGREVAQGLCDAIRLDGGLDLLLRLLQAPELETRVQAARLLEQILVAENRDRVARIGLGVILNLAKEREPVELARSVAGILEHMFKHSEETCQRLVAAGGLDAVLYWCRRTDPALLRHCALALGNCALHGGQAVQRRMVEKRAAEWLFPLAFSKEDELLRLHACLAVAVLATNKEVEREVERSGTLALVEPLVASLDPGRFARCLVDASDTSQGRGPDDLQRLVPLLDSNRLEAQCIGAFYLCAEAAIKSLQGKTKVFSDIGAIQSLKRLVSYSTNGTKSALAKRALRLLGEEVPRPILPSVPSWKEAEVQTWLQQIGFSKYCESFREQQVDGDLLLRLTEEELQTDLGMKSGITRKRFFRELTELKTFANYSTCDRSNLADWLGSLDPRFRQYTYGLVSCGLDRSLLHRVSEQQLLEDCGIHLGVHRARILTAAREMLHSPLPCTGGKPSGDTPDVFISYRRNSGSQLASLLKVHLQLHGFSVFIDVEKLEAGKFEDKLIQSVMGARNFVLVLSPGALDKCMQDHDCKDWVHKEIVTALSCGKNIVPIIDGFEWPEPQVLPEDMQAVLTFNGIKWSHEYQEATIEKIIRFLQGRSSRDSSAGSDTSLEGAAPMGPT
The assay is described as follows: SARM1 (50-724) enzymatic assay (LC-MS/MS). Format: biochemical. The note with it: Purified SARM1 (50-724) 2 nM, NMN as activator, NAD+ as substrate, 1 h at room temperature, read-out: IC50 (SARM1 inhibitory activity). How it is done:
An enzymatic assay was performed in a 384-well plate using Dulbecco's phosphate-buffered saline (PBS) as the reaction buffer. Purified SARM1 (50-724) with a final concentration of 2 nM was pre-incubated with a test compound at […] final assay concentration for 15 min at room temperature. The reaction was initiated by adding a mixture of […] nicotinamide mononucleotide (NMN) as activator and […] NAD^+ as substrate. After 1 h of incubation at room temperature, the reaction was terminated with 10 times volume of 70% acetonitrile, and then centrifuged at 3800 rpm for 10 min. The samples were analyzed using LC-MS/MS after diluted to a proper concentration by 10 mM ammonium acetate (pH 9.75).
In Table 2, activity is provided as follows: A: IC50≤100 nM; B: 100 nM<IC50≤500 nM; C: 500 nM<IC50≤1000 nM; D: IC50>1000 nM.
As for `O=S1(=O)CC[C@@H](OC(F)(F)F)[C@H](n2cnnc2-c2nc3cc(C(F)(F)F)ccc3[nH]2)C1` (single isomer, unassigned) [Compound 288], the pIC50 is less than 6.00. Turning to `Fc1cc([C@@H]2[C@@H]3COC[C@@H]32)cc2nc(-c3nncn3-c3cnccc3C(F)(F)F)[nH]c12` (single isomer, unassigned) [Compound 349, 7-fluoro-5-(3-oxabicyclo[3.1.0]hexan-6-yl)-2-[4-[4-(trifluoromethyl)-3-pyridyl]-1,2,4-triazol-3-yl]-1H-benzimidazole], the negative logarithm of the IC50 (pIC50) is not below 7.00. With `FC(F)(F)c1ccc2[nH]c([C@H]3COC[C@@H]3c3ccccc3)nc2c1` (single isomer, unassigned) [Compound 350], the pIC50 is less than 6.00. Then `FC(F)(F)c1ccc2[nH]c([C@H]3COC[C@H]3c3ccccc3)nc2c1` (single isomer, unassigned) [Compound 351], with less than 6.00. In the case of `CC(c1cc(F)c2[nH]c(-c3nncn3-c3cnccc3C(F)(F)F)nc2c1)c1nccs1` (single isomer, unassigned) [Compound 433, 2-(1-(7-fluoro-2-(4-(4-(trifluoromethyl)pyridin-3-yl)-4H-1,2,4-triazol-3-yl)-1H-benzo[d]imidazol-5-yl)ethyl)thiazole], the pIC50 was not below 7.00. With `CC(c1cc(F)c2[nH]c(-c3nncn3-c3cnccc3C(F)(F)F)nc2c1)c1nccs1` (single isomer, unassigned) [Compound 434, 2-(1-(7-fluoro-2-(4-(4-(trifluoromethyl)pyridin-3-yl)-4H-1,2,4-triazol-3-yl)-1H-benzo[d]imidazol-5-yl)ethyl)thiazole], the pIC50 is not below 7.00.

As for `Cc1ccc2[nH]c(-c3nccn3C3CCCC3)nc2c1` [Compound 2, 2-(1-cyclopentylimidazol-2-yl)-5-methyl-1H-benzimidazole], the pIC50 is 6.00 to 6.30. In the case of `Cc1ccc2[nH]c(-c3cncn3C3CCCC3)nc2c1` [Compound 3, 2-(1-cyclopentyl-1H-imidazol-5-yl)-6-methyl-1H-benzo[d]Imi-dazole], the pIC50 is less than 6.00. In the case of `Cc1ccc2[nH]c(-c3ccnn3C3CCCC3)nc2c1` [Compound 4, 2-(2-cyclopentylpyrazol-3-yl)-5-methyl-1H-benzimidazole], the pIC50 was 6.00 to 6.30.

For `Cc1ccc2[nH]c(-c3cccn3C3CCCC3)nc2c1` [Compound 6, 2-(1-cyclopentylpyrrol-2-yl)-5-methyl-1H-benzimidazole], the pIC50 is 6.30 to 7.00.

With `Cc1ccc2[nH]c(-c3ncccc3C3CCCC3)nc2c1` [Compound 7, 2-(3-cyclopentylpyridin-2-yl)-5-methyl-1H-benzo[d]imidazole], the pIC50 was less than 6.00. Then `Cc1ccc2[nH]c(C3=C(C4CCCC4)C(=O)OC3)nc2c1` [Compound 8, 3-Cyclopentyl-4-(5-methyl-1H-benzo[d]imidazol-2-yl)furan-2(5H)-one], with less than 6.00; and `Cc1ccc2[nH]c(C3=C(C4CCCC4)COC3=O)nc2c1` [Compound 9, 4-Cyclopentyl-3-(5-methyl-1H-benzo[d]imidazol-2-yl)furan-2(5H)-one], with less than 6.00; and `Cc1ccc2[nH]c(-c3ncnn3C3CCCC3)nc2c1` [Compound 10, 2-(2-cyclopentyl-1,2,4-triazol-3-yl)-5-methyl-1H-benzimidazole], with less than 6.00. Then `Cc1ccc2[nH]c(-c3nncn3C3CCCC3)c(CO)c2c1` [Compound 11, [2-(4-cyclopentyl-1,2,4-triazol-3-yl)-5-methyl-1H-indol-3-yl]methanol], with less than 6.00; and `Cc1ccc2[nH]c(-n3c(C4CCCC4)n[nH]c3=O)nc2c1` [Compound 12, 5-cyclopentyl-4-(5-methyl-1H-benzo[d]imidazol-2-yl)-2,4-dihydro-3H-1,2,4-triazol-3-one], with less than 6.00; and `Cc1ccc2[nH]c(C3CCCN3c3cccc(Cl)c3Cl)nc2c1` (stereo not drawn) [Compound 13, 2-(1-(2,3-Dichlorophenyl)pyrrolidin-2-yl)-5-methyl-1H-benzo[d]imidazole], with less than 6.00. For `Cc1ccc2[nH]c(-c3n[nH]c(=O)n3C3CCCC3)nc2c1` [Compound 14], the pIC50 is less than 6.00. Then `Cc1ccc2[nH]c(-c3cc(CO)cn3C3CCCC3)nc2c1` [Compound 16, (1-Cyclopentyl-5-(5-methyl-1H-benzo[d]imidazol-2-yl)-1H-pyrrol-3-yl)methanol], with 6.00 to 6.30; and `Cc1ccc2[nH]c(-c3c(CO)ccn3C3CCCC3)nc2c1` [Compound 17, (1-cyclopentyl-2-(5-methyl-1H-benzo[d]imidazol-2-yl)-1H-pyrrol-3-yl)methanol], with less than 6.00. Then `Cc1ccc2[nH]c(-c3cc(C#N)cn3C3CCCC3)nc2c1` [Compound 18, 1-cyclopentyl-5-(5-methyl-1H-benzo[d]imidazol-2-yl)-1H-pyrrole-3-carbonitrile], with 6.30 to 7.00; and `Cc1ccc2[nH]c(-c3ccc(C#N)n3C3CCCC3)nc2c1` [Compound 19, 1-cyclopentyl-5-(5-methyl-1H-1,3-benzodiazol-2-yl)pyrrole-2-carbonitrile], with 6.30 to 7.00.

`Cc1ccc2[nH]c(-c3cc(C(N)=O)cn3C3CCCC3)nc2c1` [Compound 20, 1-cyclopentyl-5-(5-methyl-1H-benzo[d]imidazol-2-yl)-1H-pyrrole-3-carboxamide]: the pIC50 is 6.00 to 6.30. Then `Cc1ccc2[nH]c(-c3ccc(C(N)=O)n3C3CCCC3)nc2c1` [Compound 24, 1-cyclopentyl-5-(5-methyl-1H-1,3-benzodiazol-2-yl)pyrrole-2-carboxamide], with less than 6.00; and `O=C1OCC(c2nc3cc(C(F)(F)F)ccc3[nH]2)=C1c1cccc(Cl)c1Cl` [Compound 25, 3-(2,3-Dichlorophenyl)-4-(5-(trifluoromethyl)-1H-benzo[d]imidazol-2-yl)furan-2(5H)-one], with less than 6.00; and `Cc1ccc2[nH]c(-n3[nH]c(=O)nc3-c3cccc(Cl)c3Cl)nc2c1` [Compound 26, 5-(2,3-dichlorophenyl)-1-(5-methyl-1H-benzo[d]imidazol-2-yl)-1,2-dihydro-3H-1,2,4-triazol-3-one], with less than 6.00.

With `Cc1ccc2[nH]c(-n3c(-c4cccc(Cl)c4Cl)noc3=O)nc2c1` [Compound 29, 3-(2,3-dichlorophenyl)-4-(5-methyl-1H-benzo[d]imidazol-2-yl)-1,2,4-oxadiazol-5 (4H)-one], the pIC50 was less than 6.00.

Regarding `O=c1[nH]nc(-c2cccc(Cl)c2Cl)n1-c1nc2cc(C(F)(F)F)ccc2[nH]1` [Compound 30, 3-(2,3-Dichlorophenyl)-4-[5-(trifluoromethyl)-1H-benzimidazol-2-yl]-1H-1,2,4-triazol-5-one], the pIC50 is less than 6.00.

`Cc1ccc2[nH]c(-n3c(-c4cccc(Cl)c4Cl)n[nH]c3=O)nc2c1` [Compound 31, 5-(2,3-dichlorophenyl)-4-(5-methyl-1H-benzo[d]imidazol-2-yl)-2,4-dihydro-3H-1,2,4-triazol-3-one]: the pIC50 is less than 6.00.

For `O=c1onc(-c2cccc(Cl)c2Cl)n1-c1nc2cc(C(F)(F)F)ccc2[nH]1` [Compound 32], the pIC50 was less than 6.00.

As to `Cc1ccc2[nH]c(-c3[nH]nnc3C3CCCC3)nc2c1` [Compound 33, 2-(4-cyclopentyl-1H-1,2,3-triazol-5-yl)-5-methyl-1H-benzo[d]imidazole], the negative logarithm of the IC50 (pIC50) is less than 6.00. Then `O=c1[nH]nc(-c2nc3cc(C(F)(F)F)ccc3[nH]2)n1-c1cccc(Cl)c1Cl` [Compound 36, 4-(2,3-dichlorophenyl)-5-(5-(trifluoromethyl)-1H-benzo[d]imidazol-2-yl)-2,4-dihydro-3H-1,2,4-triazol-3-one], with 6.30 to 7.00; and `N#Cc1c(-n2c(-c3cccc(Cl)c3Cl)n[nH]c2=O)[nH]c2ccc(C(F)(F)F)cc12` [Compound 41, 2-(3-(2,3-dichlorophenyl)-5-oxo-1,5-dihydro-4H-1,2,4-triazol-4-yl)-5-(trifluoromethyl)-1H-indole-3-carbonitrile], with less than 6.00.

`Clc1cccc(-n2cnnc2-c2nc3cc(Br)ccc3[nH]2)c1Cl` [Compound 49, 5-bromo-2-(4-(2,3-dichlorophenyl)-4H-1,2,4-triazol-3-yl)-1H-benzo[d]imidazole]: the pIC50 is not below 7.00. Then `Cc1c(Cl)cncc1-n1cnnc1-c1nc2cc(C(F)(F)F)ccc2[nH]1` [Compound 58], with not below 7.00.

As to `Cc1nsc(-n2cnnc2-c2nc3cc(C(F)(F)F)ccc3[nH]2)c1Cl` [Compound 69], the pIC50 is 6.30 to 7.00.
